For assay [1], the target named is T1, LAG-3 (Homo sapiens, UniProt P18627).
T1 sequence (P18627 23-525): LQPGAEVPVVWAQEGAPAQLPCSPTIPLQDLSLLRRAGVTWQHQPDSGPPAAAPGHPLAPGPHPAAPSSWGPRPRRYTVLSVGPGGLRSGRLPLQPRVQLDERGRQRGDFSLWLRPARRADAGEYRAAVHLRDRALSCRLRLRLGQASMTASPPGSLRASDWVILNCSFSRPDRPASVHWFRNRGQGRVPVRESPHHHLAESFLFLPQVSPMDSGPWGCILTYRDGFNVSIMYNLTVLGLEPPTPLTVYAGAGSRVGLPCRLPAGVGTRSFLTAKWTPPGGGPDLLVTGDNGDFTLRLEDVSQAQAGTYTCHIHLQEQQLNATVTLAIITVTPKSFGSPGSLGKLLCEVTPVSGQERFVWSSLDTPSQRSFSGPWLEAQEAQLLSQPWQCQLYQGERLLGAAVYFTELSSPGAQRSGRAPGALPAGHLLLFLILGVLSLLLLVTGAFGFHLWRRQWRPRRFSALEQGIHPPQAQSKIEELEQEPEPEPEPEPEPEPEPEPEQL
The assay is described as follows: single-dose TRIC screen. The assay is classed as binding. To be noted: 2% DMSO; bound from single-dose screen at 300 µM.

In assay [2] the target is T2, His-TREM2 (TREM2) (Homo sapiens, UniProt Q9NZC2).
T2 sequence (Q9NZC2 19-174 limits assumed): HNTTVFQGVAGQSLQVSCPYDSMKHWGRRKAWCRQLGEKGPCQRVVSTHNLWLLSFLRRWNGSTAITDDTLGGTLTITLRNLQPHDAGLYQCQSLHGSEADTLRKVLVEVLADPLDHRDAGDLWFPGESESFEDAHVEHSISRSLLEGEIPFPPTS
The assay is described as follows: MST. The assay is classed as binding.

The target in assay [3] is T3, TREM1 (Homo sapiens, UniProt Q9NP99). The assay is described as follows: MST. It counts as binding.
Assay [4] concerns the target T3, TREM1. As to the kind of experiment: single-dose TRIC/MST screen. To be noted: PBS pH 7.4, 0.05% Tween-20; bound from single-dose screen at 300 µM. It counts as binding.
In assay [5] the target is T1, LAG-3. As to the kind of experiment: MST. It counts as binding.
The target in assay [6] is T2, His-TREM2 (TREM2). As to the kind of experiment: nanoDSF thermal shift, dose-response. It counts as binding.
Assay [7] has as its target T2, His-TREM2 (TREM2). As to the kind of experiment: nanoDSF thermal shift. The assay is classed as binding. Conditions: read-out: ΔTm at 100 μM.
For assay [8], the target named is T2, His-TREM2 (TREM2). The assay is described as follows: biochemical.

T3 sequence (Q9NP99 21-205 limits assumed): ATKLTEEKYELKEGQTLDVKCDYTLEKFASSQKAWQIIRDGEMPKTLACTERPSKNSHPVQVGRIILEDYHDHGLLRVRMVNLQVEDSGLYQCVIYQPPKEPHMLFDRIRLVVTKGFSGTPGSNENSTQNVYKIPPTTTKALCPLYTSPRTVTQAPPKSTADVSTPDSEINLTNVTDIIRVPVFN

Consider `O=C(Nc1ccc2c(c1)CCN2)C1CCCC1` [6B10], for which the KD at LAG-3 [1] is recorded as above 300 µM. For the same molecule, the Kd at His-TREM2 (TREM2) [2] turned out to be 37.6 ± 15.8 µM; on TREM1 [3], 66.9 ± 28.6 µM.

Turning to `NC(=O)C1CCN(C(=O)c2cccn(Cc3ccccc3)c2=O)CC1` [2M06-1], the KD at LAG-3 [1] and on TREM1 [4] was above 300 µM throughout. Moreover, the affinity on His-TREM2 (TREM2) [2], expressed as Kd, was 124 ± 36 µM.

As to `COC1(CC(=O)Nc2ccc3c(c2)CCN3)CCC1` [6B10-3], the KD on LAG-3 [1] and at TREM1 [4] was above 300 µM in each case. Moreover, the Kd at His-TREM2 (TREM2) [2] was above 300 µM.

With `CC(C)(C)CC(=O)Nc1ccc2c(c1)CCN2` [6B10-2], the KD on LAG-3 [1] and at TREM1 [4] was above 300 µM in each case. The same molecule returned a Kd on His-TREM2 (TREM2) [2] above 300 µM.

As for `Cc1cccc(Cn2cccc(C(=O)N3C(C(=O)O)CC4CCCCC43)c2=O)c1` (stereo not drawn) [2M06], the KD on LAG-3 [1] and on TREM1 [4] was above 300 µM in each case. For the same molecule, binding on His-TREM2 (TREM2) [2] was characterised by a dissociation constant (Kd) of 26.1 ± 5.1 µM.

The molecule `O=C(O)C1CC2CCCCC2N1Cc1cc(=O)n2ccccc2n1` (stereo not drawn) [7G19-5] had a KD on LAG-3 [1] above 300 µM. Besides, the Kd on His-TREM2 (TREM2) [2] was found to be 4.5 ± 0.9 µM; at TREM1 [3], 56.6 ± 8.6 µM.

On to `Cc1cccn2c(=O)cc(CN3C(C(=O)O)CC4CCCCC43)nc12` (stereo not drawn) [7G19], for which the equilibrium dissociation constant (Kd) at LAG-3 [5] is 61.9 ± 23.2 µM; on His-TREM2 (TREM2) [2], 3.8 ± 0.3 µM; on TREM1 [3] it was 46.5 ± 38.1 µM.

With `O=C1CCCN1c1ccc2c(c1)CCN2` [6B10-1], the Kd on LAG-3 [5] was found to be 59.4 ± 14.1 µM; at His-TREM2 (TREM2) [2], 19.5 ± 6.8 µM; on TREM1 [3], 121 ± 3.4 µM.

On to `Cc1cccc(Cn2cccc(C(=O)NC3CCCCCC3)c2=O)c1` [2M06-8], for which the KD at LAG-3 [1] and at TREM1 [4] was above 300 µM each time. The Kd at His-TREM2 (TREM2) [2] was above 300 µM.

Turning to `O=C(Nc1ccc2c(c1)CCN2C(=O)c1ccoc1)C1CC2C=CC1C2` (stereo not drawn) [6B10-9], the KD at LAG-3 [1] and at TREM1 [4] was above 300 µM throughout. Moreover, the EC50 at His-TREM2 (TREM2) [6] was determined as 62 µM. Moreover, at His-TREM2 (TREM2) [7], the ΔTm at 100 µM is above 2 °C. On His-TREM2 (TREM2) [2], this molecule had a Kd of 68.3 ± 2.8 µM.

Consider `CC1(C(=O)Nc2ccc3c(c2)CCN3C(=O)c2ccoc2)CCCC1` [6B10-8], for which the KD at LAG-3 [1] and on TREM1 [4] was above 300 µM each time. The Kd was 136 ± 14 µM on His-TREM2 (TREM2) [8] and 127 ± 16 µM at His-TREM2 (TREM2) [2].

On to `Cn1cc(C(=O)N2C(C(=O)O)CC3CCCCC32)ccc1=O` (stereo not drawn) [2M06-6], for which the KD at LAG-3 [1] and on TREM1 [4] was above 300 µM each time. At His-TREM2 (TREM2) [2], this molecule showed a Kd above 300 µM.

Take `CC(=O)N1CCc2cc(NC(=O)C3(C#N)CCCC3)ccc21` [6B10-13]: the equilibrium dissociation constant (KD) at LAG-3 [1] and at TREM1 [4] was above 300 µM each time. This molecule came in with a Kd at His-TREM2 (TREM2) [2] above 300 µM.
